Results as given in US20240002393A1, “SUBSTITUTED BENZO[f][l ,2,4JTRIAZOL0[4,3-a][l ,4J[…] GABA A GAMMA! POSITIVE ALLOSTERIC MODULATORS” (Hoffmann-La Roche Inc., priority 2020, published 2024).

Experiments:
[1] = biological target: human GABAA α2β2γ1 receptor (Homo sapiens (Human), UniProt P47869+Q8N1C3); assay: Radioligand binding assay, [3H]RO7239181 competition, γ1-containing GABAA subtypes; conditions: for γ2/γ1 Selectivity Ratio: Ki α1β3γ2 (nM)/Ki α2β2γ1 (nM); for LogSel: Log[Ki α1β3γ2 (nM)/Ki α2β2γ1 (nM)]
Protocol: The affinity of compounds at GABAA γ1 subunit-containing receptors was measured by competition for [^3H]RO7239181 (67.3 Ci/mmol; Roche) binding to membranes from HEK293F cells (ThermoFisher R79007) expressing human (transiently transfected) receptors of composition α5β2γ1, α2β2γ1, α1β2γ1.
Harvested pellets from HEK293F cells expressing the different GABAA receptor subtypes were resuspended in Mannitol Buffer pH 7.2-7.4 (Mannitol 0.29M, Triethylamine 10 mM, Acetic acid 10 mM, EDTA 1 mM plus protease inhibitors (20 tablets Complete, Roche Diagnostics Cat. No. 05 056 489 001 per liter)), washed two times and then resuspended at 1:10 to 1:15 dilution in the same buffer. Cell disruption was performed by stirring the suspension in a Parr vessel #4637 at 435 psi for 15 minutes, and then the suspensions were centrifuged at 1000×g for 15 minutes at 4° C. (Beckman Avanti J-HC; rotor JS)-4.2). The supernatant (S1) was transferred in a 21 Schott flask and the pellet (P1) was resuspended with Mannitol Buffer up to 175 ml. The resuspended pellet was transferred into a 250 ml Corning centrifugal beaker and centrifuged at 1500×g for 10 minutes at 4° C. (Beckman Avanti J-HC; rotor JS)-4.2). The supernatant (S1) was then transferred in the 21 Schott flask and the pellet was discarded. The supernatants (S1) were centrifuged in 500 ml Beckman polypropylene centrifugal beaker at 15,000×g for 30 minutes at 4° C. (Beckman Avanti J-20 XP; rotor JLA-10.500). The pellet (P2) was resuspended with Mannitol Buffer 1:1 and frozen at −80° C. The supernatant (S2) was centrifuged in 100 ml Beckman polypropylene centrifugal tubes at 48000×g for 50 minutes at […] (Beckman Avanti J-20 XP; rotor JA-18). The supernatant (S3) was discarded and the pellet (P3) was resuspended with 1:1 Mannitol Buffer. The P2 and P3 protein concentration was determined with the BIORAD Standard assay method with bovine serum albumin as standard and measured on the NANO-Drop 1000. The membrane suspension was aliquots (500 μl per tube) and stored at −80° C. until required.
Membrane homogenates were resuspended and polytronised (Polytron PT1200E Kinematica AG) in Potassium Phosphate 10 mM, KCl 100 mM binding buffer at pH 7.4 to a final assay concentration determined with a previous experiment.
Assays were incubated to equilibrium for 1 hour at 4° C. and then, membranes were filtered onto unifilter (96-well white microplate with bonded GF/C filters preincubated 20-50 minutes in 0.3% Polyethylenimine) with a Filtermate 196 harvester (Packard BioScience) and washed 4 times with cold Potassium Phosphate 10 mM pH 7.4, KCl 100 mM binding buffer. After drying, filter-retained radioactivity was detected by liquid scintillation counting. K, values were calculated using Excel-Fit (Microsoft) and are the means of two determinations.

h-GABA-A α2β2γ1 = h-GABA-A α2β2γ1 (Homo sapiens (Human), UniProt P47869+Q8N1C3); assay: Two-electrode voltage clamp electrophysiology in Xenopus oocytes expressing GABAA receptors; assay type: cell-based; conditions: for potentiation of the GABA-induced current in α2βγ1 GABAA receptor subtype expressing oocytes: reference PAMs, GABA EC20
Protocol: Xenopus laevis oocytes at maturation stages V-VI were used for the expression of cloned mRNA encoding GABAA receptor subunits. Oocytes ready for RNA micro-injection were bought from Ecocyte, Castrop-Rauxel, Germany and stored in modified Barth's medium (composition in mM: NaCl 88, KCl 1, NaHCO3 2.4, HEPES 10, MgSO4 0.82, CaNO3 0.33, CaCl2 0.33, pH=7.5) at 20° C. until the experiment.
Oocytes were plated in 96-well plates for microinjection using the Roboinject automated instrument (MultiChannelSystems, Reutlingen, Germany). Approximately 50 nL of an aqueous solution containing the RNA transcripts for the subunits of the desired GABAA receptor subtype was injected into each oocyte. […] Oocytes were kept in modified Barth's medium (composition in mM: NaCl 88, KCl 1, NaHCO3 […], HEPES 10, MgSO4 0.82, CaNO3 0.33, CaCl2 0.33, pH=7.5) at 20° C. until the experiment.
Electrophysiological experiments were performed using the Roboocyte instrument (MultiChannelSystems, Reutlingen, Germany) on days 3 to 5 after the micro-injection of mRNA. During the experiment the oocytes were constantly superfused by a solution containing (in mM) NaCl 90, KCl 1, HEPES 5, MgCl2 1 CaCl2 1 (pH 7.4). Oocytes were impaled by two glass microelectrodes (resistance: 0.5-0.8 MΩ) which were filled with a solution containing KCl 1M+K-acetate 1.5 M and voltage-clamped to −80 mV. The recordings were performed at room temperature using the Roboocyte two-electrode voltage clamp system (Multichannelsystem). After an initial equilibration period of 1.5 min GABA was added for 1.5 min at a concentration evoking approximately 20% of a maximal current response (EC20). After another rest interval of 2.5 min GABA was again added evoking a response of similar amplitude and shape. […] Current traces were recorded at a digitization rate of 10 Hz during and shortly before and after the GABA application.
Each compound and concentration was tested on at least 3 oocytes. Different oocytes were used for different compound concentrations.
For the analysis, the digitized current traces of the first and second GABA response were superimposed and, if necessary, rescaled to equal maximal amplitudes. The ratio between the two responses during the time interval of test compound application was calculated point by point. The extremum of the resulting “ratio trace” was taken as the efficacy (“Fold increase”) of the compound expressed as “% modulation of GABA EC20” (100*(Fold increase−1)).

[2] = biological target: human GABAA α1β3γ2 receptor (Homo sapiens (Human), UniProt P14867+P18507); assay: Radioligand binding assay, [3H]Flumazenil competition, γ2-containing GABAA subtypes
Protocol: The affinity of compounds at GABAA γ2 subunit-containing receptors was measured by competition for [^3H]Flumazenil (81.1 Ci/mmol; Roche) binding to HEK293F cells expressing human (transiently transfected) receptors of composition α1β3γ2.
Harvested pellets from HEK293F cells expressing the different GABAA γ2 receptor subtypes were resuspended in Mannitol Buffer pH 7.2-7.4 and processed as described above for the cells expressing the GABAA γ1 subunit-containing receptors.
Assays were incubated to equilibrium for 1 hour at 4° C. and harvested onto GF/C uni-filters (Packard) by filtration using a Packard harvester and washing with ice-cold wash buffer (50 mM Tris; pH 7.5). After drying, filter-retained radioactivity was detected by liquid scintillation counting. Ki values were calculated using Exel-Fit (Microsoft) and are the means of two determinations.

Compound	γ2/γ1 Selectivity Ratio [1]	LogSel [1]	Efficacy (GABA)% (h-GABA-A α2β2γ1; % modulation of GABA EC20 = 100*(Fold increase−1), compound at 30-fold Ki)	potentiation of the GABA-induced current in α2βγ1 GABAA receptor subtype expressing oocytes (h-GABA-A α2β2γ1)	Ki [1]	Ki [2]
Cc1nnc2n1-c1ccc(Cl)cc1C(c1ccccc1)=NC2 [Alprazolam, reference compound]	0.0050	−2.3				
Clc1ccc2c(c1)C(c1ccccc1)=NCc1nncn1-2 [Estazolam, reference compound]	0.0089	−2.0				
CCc1nnc2n1-c1ccc(C(F)(F)F)c(Cl)c1C(c1c(F)cccc1F)=N[C@H]2C [Example 108, (4S)-7-chloro-6-(2,6-difluorophenyl)-1-ethyl-4-methyl-8-(trifluoromethyl)-4H-[1,2,4]triazolo[4,3-a][1,4]benzodiazepine]	50.4		94%			
CN1C(=O)CN=C(c2ccccc2F)c2cc([N+](=O)[O-])ccc21 [Flunitrazepam, reference compound]				~60%		
Cc1ncc2n1-c1ccc(Cl)cc1C(c1ccccc1F)=NC2 [Midazolam, reference compound]	0.0068	−2.2		~60%		
Cc1nnc2n1-c1ccc(Br)cc1C(c1c(F)cccc1F)=NC2 [RE-A, 8-bromo-6-(2,6-difluorophenyl)-1-methyl-4H-[1,2,4]triazolo[4,3-a][1,4]benzodiazepine, reference compound]	0.18	−0.74				
Cc1nnc2n1-c1ccc(C(F)(F)F)cc1C(c1c(F)cccc1F)=NC2 [RE-B, 6-(2,6-difluorophenyl)-1-methyl-8-(trifluoromethyl)-4H-[1,2,4]triazolo[4,3-a][1,4]benzodiazepine, reference compound]	0.23	−0.64				
Cc1nnc2n1-c1ccccc1C(c1c(F)cccc1F)=NC2 [RE-C, 6-(2,6-difluorophenyl)-1-methyl-4H-[1,2,4]triazolo[4,3-a][1,4]benzodiazepine, reference compound]	0.0092	−2.0				
Cc1nnc2n1-c1cccc(Cl)c1C(c1c(F)cccc1F)=N[C@H]2C [RE-D, (4S)-7-chloro-6-(2,6-difluorophenyl)-1,4-dimethyl-4H-[1,2,4]triazolo[4,3-a][1,4]benzodiazepine, reference compound]	2.215	0.35			454 nM	1010 nM
Cc1nnc2n1-c1ccc(Cl)cc1C(c1ccccc1Cl)=NC2 [Triazolam, reference compound]		−1.5		~60%		
